“Also recorded” adds a separate entry of the source.
Legend:
isolated rat aorta [1] = experiment: In vitro vasorelaxation of epinephrine-contracted rat aortic rings (cumulative concentration-response curves); format: cell-based; conditions: isolated rat aorta pre-treated in vitro with 1 μM epinephrine; in words
Text: Male Sprague Dawley rats were anaesthetized using intraperitoneal injection of ketamine and xylazine (50 and 10 milligram per kilogram, respectively) and the thoracic aorta, the large upper portion of the descending aorta, starting at the caudal border of the chest bone, was removed thereafter, while carefully removing the paraadventetial tissue surrounding the vessel. Aortae were cut into rings of 4-5 millimeters and mounted onto the tissue path. The path buffer (Krebs-bicrbonate) was constantly gassed with carbogen and maintained at 37° C. The rings were preloaded under 2 g tension and equilibrated for 90 minutes, while refreshing the buffer every 15 minutes. After stabilization, the rings were contracted with epinephrine (1 μM). Cumulative Concentration-Response Curves (CCRC) were measured for the vasorelaxing effect induced by adding various concentrations, ranging from 10^−10 M to 10^−5 M of Pet-2, Pet-3, Pet-7, Pet-8, Pet-12, Pet-24, Pet-43, Pet-59, Pet-147, Pet-152 and Pet-154, and glyceryltrinitrate (GTN), according to the procedure described in Feelich et al., Molecular Pharmacology, 56:243-253 (1999). The vehicle, which was used for this experiment was water:ethanol:propyleneglycol at proportional ratio of 1:1:1.
The vasorelaxing effect of the thiazole-derived NO-donors according to the present invention was measured on slices of thoracic aorta of rats contracted with epinephrine, as described hereinabove.

isolated rat aorta [2] = experiment: In vitro induction of tolerance: vasorelaxation of aortic rings pre-exposed to the NO-releasing compound; format: cell-based; conditions: vasorelaxation in rings pre-treated with 0.44 mM of the compound versus control rings; in words
Description: Aortic rings were prepared as described hereinabove, and were exposed to 0.44 mM GTN (vehicle was water:ethanol:propyleneglycol at proportional ratio of 1:1:1) for 1 hour before CCRC construction, to thereby induce tolerance to nitroglycerine. At the end of the tolerance induction period, rings were thrice washed with the path buffer (Krebs-bicrbonate) every 15 minutes for the following hour and then CCRC for vasorelaxation on GTN-induced tolerance rings were constructed for GTN (pretreated versus untreated rings, FIG. 15), in order to verify the ability to induce and measure GTN tolerance induction in vitro
Attempted induction of tolerance to the NO-donating compounds of the present invention was performed under the same conditions as for GTN. Thus, in an exemplary experiment, rings were exposed to 0.44 mM solution of Pet-3 in the attempt to induce tolerance for Pet-3. CCRC were then measured for the vasorelaxing effect of Pet-3 on a group of rings which were pre-exposed to Pet-3 as to induce tolerance to Pet-3, and for an untreated control group. The above protocol was repeated with Pet-2, Pet-7, Pet-8, Pet-12, Pet-24, Pet-43, Pet-149 and Pet-152.

c-GMP [3] = experiment: Cyclic-GMP measurement in aortic rat tissue (radioimmunoassay); format: cell-based; conditions: isolated rat aorta, FIGS. 25, 27 and 33; in words
Description: GTN (10^−6 M) was added to the chamber and, 1 minute after exposure to the drug, rings (usually 3-5) were taken, wrapped with aluminum foil and immediately frozen in liquid nitrogen for storage. Control sample group was treated with the vehicle solution only. At the time of analysis, rings were thawed, blotted over a dry gauzed and weighted. A known weight of tissue was homogenized in 2 ml ice-cold modified Hank's balanced salt solution containing (in gram/liter) NaCl 8; KCl 0.4; glucose 1; KH2PO4 0.06; Na2HPO4 0.047; Phenol red 0.017 and further containing 25 mM EDTA (disodium salt). The homogenate was centrifuged at 4000 g (force units) for 10 minutes at 2-4° C. and the supernatant was thereafter transferred into fresh pre-cooled test tube containing 1 ml of acetonitrile. The tubes were vortex mixed for a few seconds and subsequently centrifuged at 4000 g for 5 minutes at 2-4° C., to remove the precipitated protein. Each supernatant was transferred into a clean test tube and evaporated to dryness under a stream of nitrogen at 55° C. The dry residue was reconstituted with 10 volumes of Tris-EDTA buffer pH 7.5 (0.05 M Tris containing 4 mM EDTA). Aliquots of 100 μl of the reconstituted solution in duplicate were used for c-GMP measurements using Amersham RIA kit, as is described in Haj-Yehia & Benet [Pharmacology, 1995, 273, 1, pp. 94-100]. Standard curves were plotted with six concentrations (0, 0.5, 1, 2, 4 and 8 pmoles of c-GMP per tube).
The NO-tolerance effect of GTN and NO-donor compounds according to the present invention was measured by following the production of c-GMP in slices of thoracic aorta of rats. Thus, the production of c-GMP was measured as described in the methods section above for the reference NO-donor compound GTN, and for the NO-donors of the present invention Pet-2, Pet-3, Pet-7, Pet-8, Pet-10, Pet-12, Pet-24, Pet-59, Pet-147, Pet-149, Pet-152, Pet-154 and Pet-155.

c-GMP [4] = experiment: Induction of in vivo nitrate tolerance (cGMP in aorta isolated after 16 hour infusion); design: species or system rat; conditions: in words; for tolerance induction in vivo: cGMP accumulation in isolated aorta of rats pre-treated in vivo with the compound
Description: For c-GMP levels and tolerance development, the rat's thoracic aorta was isolated after exposure to the tested compound in vivo, and measured as described above in the in vitro assays.
Male Sprague Dawley rats (220 to 250 grams) were housed under constant temperature and humidity conditions. Light was maintained at a 12/12 light dark cycle. Except for 12 hours before the experiment, when food fasting was initiated, all rats had free access to standard rat pellet diet and tap water. The animals were anesthetized by intraperitoneal injection of ketamine and xylazine combination (50 and 10 milligram per kilogram, respectively). […] The catheters were filled with normal saline solution containing 1000 IU/ml of heparin and plugged with a metal pin. Catheters were externalized to the back of the neck region and secured by a polyester felt disk.
After implantation, the rats were individually housed until they regained their preoperative weight and appeared healthy (3 to 4 days post-operation). At this time point (day 0), an osmotic mini-pump (Alza Corp., Palo Alto, Calif.) delivering constant volume (10 μl/hour) of vehicle or drug was connected to one of the intravenous catheters.
For inducing tolerance to the tested NO-donor according to the present invention, the animals received 200 μg/hour of the tested compound for 16 hours (short-term-induced tolerance). A similar number of animals were processed by the same surgical procedure and received the vehicle alone (10 μl/hour of a solution consisting of 30% ethanol and 30% propylene glycol in sterile distilled water for injection).
At the end of the infusion periods used for the development of tolerance (16 hour), the rats were anesthetized as described above, the two catheters were externalized and the delivering catheters were disconnected from the mini-pump. The abdomen was opened by midline incision and the thoracic aorta were isolated, washed and cleaned from the surrounding tissues. Strips of the treated aortas were pooled in chambers containing Krebs-Hanseliet buffer (10 ml), and exposed to 1 μM of the tested NO-donor (final concentration) for 120 seconds. The tissues were quickly collected and frozen in liquid nitrogen for cGMP measurement, described hereinabove.

isolated rat aorta [5] = experiment: Cross-tolerance studies on aortic rings (GTN / Pet-12 pre-treatment); format: cell-based; conditions: in words
Description: Cross-tolerance studies were conducted using the same technique described above for measuring vasorelaxation of aortic rings from rats. Two groups of aortic rings samples were pre-treated with GTN, then one group was measured for vasorelaxation by GTN and the second group for vasorelaxation by Pet-12, an exemplary NO-donor according to the present invention. For the opposite cross-tolerance studies, two groups of aortic rings samples were pre-treated with Pet-12, then one group was measured for vasorelaxation by GTN and the second group for vasorelaxation by Pet-12.

Row | Compound | vasorelaxation effect as compared with glyceryltrinitrate (isolated rat aorta [1]) | tolerance induction in vitro (isolated rat aorta [2]) | levels of cGMP as compared with GTN (c-GMP [3]) | other results
1 | Cc1nc(Nc2nc(C)c(CCO[N+](=O)[O-])s2)sc1CCO[N+](=O)[O-] [Pet-43, Bis-[4-methyl-5-(2-nitrooxy-ethyl)-thiazol-2-yl]-amine] | superior | absence of tolerance induction |  | 
2 | Cc1nc(N)sc1CCO[N+](=O)[O-] [Pet-10, 4-methyl-5-(2-nitrooxy-ethyl)-thiazole-2-ylamine] |  |  | increased levels of cGMP | 
3 | CNc1cncc(-c2nc(C)c(CCO[N+](=O)[O-])s2)n1 [Pet-24, Methyl-{6-[4-methyl-5-(2-nitrooxy-ethyl)-thiazol-2-yl]-pyrazin-2-yl}-amine] |  | absence of tolerance induction | increased levels of cGMP | 
4 | Cc1nc(NC(=O)c2cccnc2)sc1CCO[N+](=O)[O-] [Pet-154, N-[4-methyl-5-(2-nitrooxy-ethyl)-thiazol-2-yl]-nicotinamide] |  |  | increased levels of cGMP | 
5 | Cc1nc(Nc2cccc3ccccc23)sc1CCO[N+](=O)[O-] [Pet-149, [4-Methyl-5-(2-nitrooxy-ethyl)-thiazol-2-yl]-naphthalen-1-yl-amine] | superior | absence of tolerance induction | increased levels of cGMP | 
6 | CCNc1nc(C)c(CCO[N+](=O)[O-])s1 [Pet-147, Ethyl-[4-methyl-5-(2-nitrooxy-ethyl)-thiazol-2-yl]-amine] |  |  | increased levels of cGMP | 
7 | Cc1nc(-c2cccnc2)sc1CCO[N+](=O)[O-] [Pet-12, 3-[4-Methyl-5-(2-nitrooxy-ethyl)-thiazole-2-yl]-pyridine] |  | absence of tolerance induction |  | tolerance induction in vivo (c-GMP [4]): absence of tolerance induction; also recorded: absence of tolerance effect; also recorded: lack of tolerance induction; vasorelaxation in GTN-tolerant rings (cross-tolerance) (isolated rat aorta [5]; aortic rings pre-treated with epinephrine and then with GTN): absence of tolerance induction effect; also recorded: has no effect on the vasorelaxation capacity; tolerance after pre-treatment with Pet-12 (to itself and to GTN) (isolated rat aorta [5]; aortic rings pre-treated with epinephrine and then with Pet-12): absence of tolerance induction effect; also recorded: does not evoke tolerance to itself not to GTN
8 | Cc1nc(-c2ccccc2)sc1CCO[N+](=O)[O-] [Pet-8, 4-Methyl-5-(2-nitrooxy-ethyl)-2-phenyl-thiazole] | superior |  | increased levels of cGMP | 
9 | Cc1nc(-c2ccc(C(F)(F)F)cc2)sc1CCO[N+](=O)[O-] [Pet-59, 4-Methyl-5-(2-nitrooxy-ethyl)-2-(4-trifluoromethyl-phenyl)-thiazole] | superior |  | increased levels of cGMP | 
10 | Cc1nc(NC(=O)[C@@H](C)c2ccc(CC(C)C)cc2)sc1CCO[N+](=O)[O-] (stereo in doubt) [Pet-152, 2-(4-Isobutyl-phenyl)-N-[4-methyl-5-(2-nitrooxy-ethyl)-thiazol-2-yl]-propionamide] | superior |  | increased levels of cGMP | 
11 | Cc1nc(N(C)C)sc1CCO[N+](=O)[O-] [Pet-7, Dimethyl-[4-methyl-5-(2-nitrooxy-ethyl)-thiazol-2-yl]-amine] |  | absence of tolerance induction | increased levels of cGMP | 
12 | Cc1nc(C)c(CCO[N+](=O)[O-])s1 [Pet-3, 2,4-Dimethyl-5-(2-nitrooxy-ethyl)-thiazole] | superior | absence of tolerance induction | increased levels of cGMP | 
13 | C=CCNc1nc(C)c(CCO[N+](=O)[O-])s1 [Pet-155, allyl-[4-methyl-5-(2-nitrooxy-ethyl)-thiazol-2-yl]-amine] | superior |  | increased levels of cGMP | 
14 | CCc1nc(C)c(CCO[N+](=O)[O-])s1 [Pet-2, 2-Ethyl-4-methyl-5-(2-nitrooxy-ethyl)-thiazole] | superior |  |  | level of cGMP following a repeated treatment in vivo (c-GMP [4]; aorta of rats infused 200 μg/hour for 16 hours, then exposed to 1 μM compound for 120 seconds): remained substantially unchanged; tolerance induction in vivo (c-GMP [4]): absence of tolerance induction; also recorded: absence of tolerance effect

Source: patent US7968575B2, “Nitric oxide donors and uses thereof” (priority 2004, dated 2011)
